Experimental findings from US6716613B1, “Metalloprotease having aggrecanase activity” (Yamanouchi Pharmaceutical Co., Ltd., priority 1999, dated 2004) are described below.

By IC50 is commonly meant the midpoint of a concentration-inhibition curve.

The structures appear in SMILES notation.

In one assay the target is T1, MDTS6Cys (Homo sapiens, UniProt Q8TE58).
T1 construct: made in house; host or cells: HEK293-EBNA cells; unpurified culture supernatant used as enzyme source
T1 sequence (Q8TE58 213-687): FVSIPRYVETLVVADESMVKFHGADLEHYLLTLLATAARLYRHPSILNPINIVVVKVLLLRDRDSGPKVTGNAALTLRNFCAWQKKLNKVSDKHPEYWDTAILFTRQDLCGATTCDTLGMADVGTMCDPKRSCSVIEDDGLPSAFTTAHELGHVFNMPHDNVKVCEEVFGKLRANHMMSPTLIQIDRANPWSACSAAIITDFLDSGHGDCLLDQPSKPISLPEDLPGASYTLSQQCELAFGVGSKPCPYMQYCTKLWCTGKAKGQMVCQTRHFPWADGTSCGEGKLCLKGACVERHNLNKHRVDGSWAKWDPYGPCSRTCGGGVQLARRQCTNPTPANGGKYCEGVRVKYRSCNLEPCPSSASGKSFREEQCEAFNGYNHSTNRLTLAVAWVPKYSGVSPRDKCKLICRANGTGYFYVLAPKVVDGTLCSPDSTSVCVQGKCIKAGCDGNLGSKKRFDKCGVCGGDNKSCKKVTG
Nature of the assay: ELISA screening system for aggrecanase activity inhibition (anti-aggrecanase neoepitope antibody). It counts as biochemical. The following applies: MDTS6Cys culture supernatant, recombinant aggrecan G1G2 substrate, 37° C. for several hours; read-out: aggrecanase activity inhibition strength (IC50). (In general: In an ELISA, binding on a coated surface is turned into a signal by an enzyme label.)

Assay [1] concerns rabbit knee joint cartilage primary culture cells. Nature of the assay: Proteoglycan degradation/release in rabbit knee joint cartilage primary culture cells (35S label). The assay is classed as cell-based. Particulars: compound added just before stimulation with 10 μM of all-trans retinoic acid. The protocol: After killing a rabbit (Japanese white species, male, 1.0 to 1.5 kg) under excess anesthesia, a knee joint was excised and the cartilage layer on the joint surface was removed and finely cut using a surgical knife. The cut pieces were treated with trypsin-EDTA (0.25%-1 mM; mfd. by GIBCO-BRL) at 37° C. for 1 hour and then centrifuged at 1,500 rpm for 5 minutes, and the resulting precipitate was washed with DMEM. This was treated with collagenase A (0.15%; Boehringer-Mannheim)/DMEM at 37° C. for 3 to 4 hours, and then a nylon mesh filter (100 μm, mfd. by Falcon)-passed fraction was centrifuged at 1,500 rpm for 5 minutes to effect precipitation of cartilage cells. The cells were thoroughly washed with DMEM/10% FBS medium, suspended in DMEM/10% FBS medium to a density of 2×10^5 cells/ml and then inoculated in 200 μl/well portions into an I type collagen-coated 96 well plate (mfd. by Asahi Technoglass). Three days thereafter, the medium was changed to 200 μof DMEM/10% FBS medium containing 50 μg/ml of ascorbic acid (ascorbic acid medium hereinafter), and the culturing was continued for 3 days. When an I type collagen-coated 6 well plate (Asahi Technoglass) was used, the cell suspension was inoculated in 6 ml/well portions and cultured by carrying out the same medium exchange. These cells were used in the following test.
The rabbit knee joint cartilage primary culture cells of 96 well plate described in Example 11-1 were cultured for 2 days using 200 μl of the ascorbic acid medium supplemented with 10 μCi/ml in final concentration of Na2^35SO4 and labeled therewith, washed 3 times with 200 μl of the ascorbic acid medium and then cultured for 1 day using 200 μl of the ascorbic acid medium. After stimulation with IL-1β or all-trans retinoic acid and subsequent 0, 24, and 48 hours of culturing, the culture supernatants were recovered in 20 μl portions, and the radioactivity was measured using Top Count (mfd. by Packard).
Each of the compounds A, B, C and D selected by the screening system of Example 10-2 was added to the proteoglycan degradation system of rabbit knee joint cartilage primary culture cells just before the stimulation with 10 μM of all-trans retinoic acid, and their proteoglycan degradation inhibitory activities were examined.

Procedure for MDTS6Cys: The criterion to screen a substance which inhibits the aggrecanase activity is preferably 10 μM or less, more preferably 1.0 μM or less, as inhibition activity strength (IC50)

Turning to `CNC(=O)[C@H](Cc1ccccc1)NC(=O)C(CC(C)C)C(CS)C(=O)NO` (stereo partly drawn) [compound B, N^α-[2-(1-hydroxycarbamoyl-2-sulfanylethyl)-4-methylpentanoyl]-N-methylphenylalanineamide], at MDTS6Cys, the IC50 was found to be 1000 nM. Further, the “inhibition of proteoglycan degradation (in words, FIG. 8)” value in assay [1] is reported as “inhibition of proteoglycan degradation in a concentration-dependent manner”.
